Data: patent US5157051A, “Composition and use of 3-thiocyano-2-halo-2-propenenitriles as antimicrobial agents” (The Dow Chemical Company, priority 1992, dated 1992)
Values after ≈ are worked out from the molar mass of the structure shown. Where two headings read alike, the source gives them in different places.

Tests used:
[1] = test system: Pseudomonas aeruginosa (PRD-10); assay: MIC, Pseudomonas aeruginosa (PRD-10), nutrient agar; format: cell-based, Pseudomonas aeruginosa ATCC 15442; conditions: 30° C., 48 hours, read-out: Minimum Inhibitory Concentration, PRD
Experimental: (§1) The minimum inhibitory concentration (MIC) for the compounds is determined for 9 bacteria, using nutrient agar, and 7 yeast and fungi, using malt yeast agar. A one percent solution of the test compound is prepared in a mixture of acetone and water. Nutrient agar is prepared at pH 6.8, representing a neutral medium, and at pH 8.2, representing an alkaline medium. The nutrient agars are prepared by adding 23 g of nutrient agar to one-liter of deionized water. In addition, the alkaline medium is prepared by adjusting a 0.04M solution of N-[tris-(hydroxymethyl)methyl]-glycine buffered deionized water with concentrated sodium hydroxide to a pH of […]. Malt yeast agar is prepared by adding 3 g yeast extract and 45 g malt agar per liter of dionized water. The specific agar is dispensed in 30 ml aliquots into 25×200 mm test tubes, capped and autoclaved for 15 minutes at 115° C. The test tubes containing the agar are cooled in a water bath until the temperature of the agar is 48 ° C. […]
(§2) The inoculated petri plates are incubated at 30° C. for 48 hours and then read to determine if the test compound which is incorporated into the agar prevented growth of the respective bacteria. […]

Saccharomyces cerevisiae = assay: MIC, Saccharomyces cerevisiae (Sc), malt yeast agar; format: cell-based, Saccharomyces cerevisiae ATCC 4105; conditions: 30° C., 48 hours (yeast), read-out: Minimum Inhibitory Concentration, Sc
Experimental: as §1
(§3) The inoculation with the yeast and fungi is accomplished as follows. […] The petri plates are incubated at 30° C. and read after 48 hours for yeast and 72 hours for fungi. […]

Bacillus subtilis = assay: MIC, Bacillus subtilis (Bs), nutrient agar; format: cell-based, Bacillus subtilis ATCC 8473; conditions: 30° C., 48 hours, read-out: Minimum Inhibitory Concentration, Bs
Experimental: as §1, §2

Escherichia coli = assay: MIC, Escherichia coli (Ec), nutrient agar; format: cell-based, Escherichia coli ATCC 11229; conditions: 30° C., 48 hours, read-out: Minimum Inhibitory Concentration, Ec
Experimental: as §1, §2

Staphylococcus aureus = assay: MIC, Staphylococcus aureus (Sa), nutrient agar; format: cell-based, Staphylococcus aureus ATCC 6538; conditions: 30° C., 48 hours, read-out: Minimum Inhibitory Concentration, Sa
Experimental: as §1, §2

Fusarium oxysporum = assay: MIC, Fusarium oxysporum (Fo), malt yeast agar; format: cell-based, Fusarium oxysporum ATCC 48112; conditions: 30° C., 72 hours (fungi), read-out: Minimum Inhibitory Concentration, Fo
Experimental: as §1, §3

Penicillium chrysogenum = assay: MIC, Penicillium chrysogenum (Pc), malt yeast agar; format: cell-based, Penicillium chrysogenum ATCC 9480; conditions: 30° C., 72 hours (fungi), read-out: Minimum Inhibitory Concentration, Pc
Experimental: as §1, §3

Trichoderma viride = assay: MIC, Trichoderma viride (Tv), malt yeast agar; format: cell-based, Trichoderma viride ATCC 8678; conditions: 30° C., 72 hours (fungi), read-out: Minimum Inhibitory Concentration, Tv
Experimental: as §1, §3

Proteus vulgaris = assay: MIC, Proteus vulgaris (Pv), nutrient agar; format: cell-based, Proteus vulgaris ATCC 881; conditions: 30° C., 48 hours, read-out: Minimum Inhibitory Concentration, Pv
Experimental: as §1, §2

Pseudomonas aeruginosa = assay: MIC, Pseudomonas aeruginosa (Pa), nutrient agar; format: cell-based, Pseudomonas aeruginosa ATCC 10145; conditions: 30° C., 48 hours, read-out: Minimum Inhibitory Concentration, Pa
Experimental: as §1, §2

Aspergillus niger = assay: MIC, Aspergillus niger (An), malt yeast agar; format: cell-based, Aspergillus niger ATCC 16404; conditions: 30° C., 72 hours (fungi), read-out: Minimum Inhibitory Concentration, An
Experimental: as §1, §3

Klebsiella pneumoniae = assay: MIC, Klebsiella pneumoniae (Kp), nutrient agar; format: cell-based, Klebsiella pneumoniae ATCC 8308; conditions: 30° C., 48 hours, read-out: Minimum Inhibitory Concentration, Kp
Experimental: as §1, §2

Salmonella choleraesuis = assay: MIC, Salmonella choleraesuis (Sc), nutrient agar; format: cell-based, Salmonella choleraesuis ATCC 10708; conditions: Salmonella enterica, 30° C., 48 hours, read-out: Minimum Inhibitory Concentration, Sc
Experimental: as §1, §2

Aureobasidium pullulan = assay: MIC, Aureobasidium pullulan (Ap), malt yeast agar; format: cell-based, Aureobasidium pullulan ATCC 16622; conditions: 30° C., read after 48 hours for yeast and 72 hours for fungi, read-out: Minimum Inhibitory Concentration, Ap
Experimental: as §1, §3

Candida albicans = assay: MIC, Candida albicans (Ca), malt yeast agar; format: cell-based, Candida albicans ATCC 10231; conditions: 30° C., 48 hours (yeast), read-out: Minimum Inhibitory Concentration, Ca
Experimental: as §1, §3

Enterobacter aerogenes = assay: MIC, Enterobacter aerogenes (Ea), nutrient agar; format: cell-based, Enterobacter aerogenes ATCC 13048; conditions: Klebsiella aerogenes, 30° C., 48 hours, read-out: Minimum Inhibitory Concentration, Ea
Experimental: as §1, §2

## N#CSC=C(Cl)C#N [3-Thiocyano-2-chloro-2-propenenitrile, 3-Thiocyano-2-Chloro-2-Propenenitrile]
[1]; pH 6.8, nutrient agar
  MIC: 250 µg/mL (≈ 1730 µM)
[1]; pH 8.2, nutrient agar
  MIC: > 500 µg/mL
Saccharomyces cerevisiae
  MIC: 2.5 µg/mL (≈ 17.3 µM)
Bacillus subtilis; pH 6.8, nutrient agar
  MIC: 25 µg/mL (≈ 173 µM)
Bacillus subtilis; pH 8.2, nutrient agar
  MIC: 500 µg/mL (≈ 3460 µM)
Escherichia coli; pH 6.8, nutrient agar
  MIC: 100 µg/mL (≈ 692 µM)
Escherichia coli; pH 8.2, nutrient agar
  MIC: > 500 µg/mL
Staphylococcus aureus; pH 6.8, nutrient agar
  MIC: 50 µg/mL (≈ 346 µM)
Staphylococcus aureus; pH 8.2, nutrient agar
  MIC: 500 µg/mL (≈ 3460 µM)
Fusarium oxysporum
  MIC: 2.5 µg/mL (≈ 17.3 µM)
Penicillium chrysogenum
  MIC: 2.5 µg/mL (≈ 17.3 µM)
Trichoderma viride
  MIC: 5 µg/mL (≈ 34.6 µM)
Proteus vulgaris; pH 6.8, nutrient agar
  MIC: 50 µg/mL (≈ 346 µM)
Proteus vulgaris; pH 8.2, nutrient agar
  MIC: > 500 µg/mL
Pseudomonas aeruginosa; pH 6.8, nutrient agar
  MIC: 250 µg/mL (≈ 1730 µM)
Pseudomonas aeruginosa; pH 8.2, nutrient agar
  MIC: 500 µg/mL (≈ 3460 µM)
Aspergillus niger
  MIC: 2.5 µg/mL (≈ 17.3 µM)
Klebsiella pneumoniae; pH 6.8, nutrient agar
  MIC: 100 µg/mL (≈ 692 µM)
Klebsiella pneumoniae; pH 8.2, nutrient agar
  MIC: 500 µg/mL (≈ 3460 µM)
Salmonella choleraesuis; pH 6.8, nutrient agar
  MIC: 100 µg/mL (≈ 692 µM)
Salmonella choleraesuis; pH 8.2, nutrient agar
  MIC: > 500 µg/mL
Aureobasidium pullulan
  MIC: 2.5 µg/mL (≈ 17.3 µM)
Candida albicans
  MIC: 2.5 µg/mL (≈ 17.3 µM)
Enterobacter aerogenes; pH 6.8, nutrient agar
  MIC: 250 µg/mL (≈ 1730 µM)
Enterobacter aerogenes; pH 8.2, nutrient agar
  MIC: > 500 µg/mL
